# Activity calls are given as the source filed them.
# Key:
# [1] = Luminescence Cell-Based Dose Confirmation HTS to Identify Activators of 5'UTR Stem-Loop Driven Alpha-Synuclein mRNA Translation in H4 Neuroglioblastoma Cells. [Related pubchem assays: 1829 (Project Summary), 1814 (Primary HTS)]; assay type: functional
# [2] = Luminescence Cell-Based Dose Response HTS to Identify Activators of Luciferase Translation or Activity in H4 […] Cells. [Related pubchem assays: 1829 (Project Summary), 1814 (Primary HTS)]; assay type: functional
# H4 = experiment: Luminescence Cell-Based Dose Response HTS to Identify Activators of 5'UTR Stem-Loop Driven Prion Protein mRNA Translation in H4 Neuroglioblastoma Cells. [Related pubchem assays: 1829 (Project Summary), 1814 (Primary HTS)]; assay type: functional; conditions: Homo sapiens
# [3] = target: T1, Heat shock factor protein 1 (Mus musculus, UniProt P38532); experiment: inhibition of MG132-induced HSE-luciferase signal, confirmation, cell-based, NIH3T3, luminescence, dose retest (AID 2382); assay type: functional;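 note: NIH3T3 fibroblasts with HSF1-driven luciferase reporter stressed by proteasome inhibitor MG132; luminescence from HSF1-driven luciferase expression after 8 hours of MG132 stress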
# T1 sequence (P38532 whole entry): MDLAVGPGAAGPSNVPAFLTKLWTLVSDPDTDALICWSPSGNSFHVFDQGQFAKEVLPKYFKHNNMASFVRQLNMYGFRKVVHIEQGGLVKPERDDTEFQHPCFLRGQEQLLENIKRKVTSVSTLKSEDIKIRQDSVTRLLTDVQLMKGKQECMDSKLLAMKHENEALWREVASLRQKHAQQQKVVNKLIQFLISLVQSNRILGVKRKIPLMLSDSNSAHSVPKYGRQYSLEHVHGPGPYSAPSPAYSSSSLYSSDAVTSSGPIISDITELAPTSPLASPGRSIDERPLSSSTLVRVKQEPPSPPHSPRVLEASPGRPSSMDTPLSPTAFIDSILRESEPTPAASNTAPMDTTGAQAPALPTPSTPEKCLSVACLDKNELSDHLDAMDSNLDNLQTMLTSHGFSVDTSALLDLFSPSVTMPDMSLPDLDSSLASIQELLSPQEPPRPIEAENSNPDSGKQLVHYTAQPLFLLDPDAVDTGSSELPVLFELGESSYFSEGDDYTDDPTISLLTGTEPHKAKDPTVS
# [4] = microbe, parasite or virus in culture; assay type: functional; conditions: Mycobacterium tuberculosis
# Jurkat = experiment: antigen receptor-induced NF-kB inhibitors, dose response, Jurkat, luciferase reporter, luminescence, B- and T-cell (AID 489004); assay type: functional, cell-based; conditions: Homo sapiens;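 note: NF-kB luciferase reporter Jurkat cells stimulated with PMA plus ionomycin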
# [5] = cytotoxicity in HEK-293T NF-kB-Luc cells, dose response, cytotoxicity control for B/T-cell NF-kB inhibitor project, cell-based, uHTS hits (AID 489019); assay type: functional;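 note: IC50 reflects cytotoxicity as loss of cell viability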
# [6] = target: T2, Replicative DNA helicase DnaB (Mycobacterium tuberculosis, UniProt P9WMR3); experiment: DnaB intein splicing inhibitors, dose response, biochemical, cell-free fluorescence (AID 449749); assay type: functional
# T2 sequence (P9WMR3 whole entry): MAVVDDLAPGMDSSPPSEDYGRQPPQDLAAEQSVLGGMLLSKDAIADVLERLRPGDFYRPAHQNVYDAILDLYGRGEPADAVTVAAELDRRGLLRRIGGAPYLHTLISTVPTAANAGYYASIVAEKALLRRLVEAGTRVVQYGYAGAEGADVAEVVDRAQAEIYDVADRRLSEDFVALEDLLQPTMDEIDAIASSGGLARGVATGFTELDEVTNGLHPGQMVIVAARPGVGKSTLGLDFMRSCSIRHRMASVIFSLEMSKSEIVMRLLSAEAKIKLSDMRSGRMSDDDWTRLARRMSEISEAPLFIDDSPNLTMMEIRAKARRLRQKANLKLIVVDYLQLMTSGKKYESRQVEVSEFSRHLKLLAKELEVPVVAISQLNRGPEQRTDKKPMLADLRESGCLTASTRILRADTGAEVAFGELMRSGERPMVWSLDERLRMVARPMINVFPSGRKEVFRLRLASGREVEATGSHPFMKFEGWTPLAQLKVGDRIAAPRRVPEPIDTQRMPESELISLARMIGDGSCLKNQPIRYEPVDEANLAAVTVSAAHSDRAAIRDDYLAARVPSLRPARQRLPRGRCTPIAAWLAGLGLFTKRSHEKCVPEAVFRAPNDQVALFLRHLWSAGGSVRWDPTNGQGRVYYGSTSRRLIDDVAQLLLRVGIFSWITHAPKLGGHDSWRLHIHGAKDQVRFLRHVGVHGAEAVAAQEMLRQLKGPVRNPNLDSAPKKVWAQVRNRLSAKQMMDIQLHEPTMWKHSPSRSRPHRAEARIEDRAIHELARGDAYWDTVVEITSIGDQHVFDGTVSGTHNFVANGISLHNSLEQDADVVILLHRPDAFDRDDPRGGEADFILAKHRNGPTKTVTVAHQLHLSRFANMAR
# Protein RecA = target: T3, Protein RecA (Mycobacterium tuberculosis, UniProt P9WHJ3); experiment: Fluorescence Cell-Free Homogeneous Dose Retest to Identify Inhibitors of RecA-Intein Splicing Activity. [Related pubchem assays (depositor defined):AID2097, AID2223, AID489010, AID492950]; assay type: functional
# T3 sequence (P9WHJ3 whole entry): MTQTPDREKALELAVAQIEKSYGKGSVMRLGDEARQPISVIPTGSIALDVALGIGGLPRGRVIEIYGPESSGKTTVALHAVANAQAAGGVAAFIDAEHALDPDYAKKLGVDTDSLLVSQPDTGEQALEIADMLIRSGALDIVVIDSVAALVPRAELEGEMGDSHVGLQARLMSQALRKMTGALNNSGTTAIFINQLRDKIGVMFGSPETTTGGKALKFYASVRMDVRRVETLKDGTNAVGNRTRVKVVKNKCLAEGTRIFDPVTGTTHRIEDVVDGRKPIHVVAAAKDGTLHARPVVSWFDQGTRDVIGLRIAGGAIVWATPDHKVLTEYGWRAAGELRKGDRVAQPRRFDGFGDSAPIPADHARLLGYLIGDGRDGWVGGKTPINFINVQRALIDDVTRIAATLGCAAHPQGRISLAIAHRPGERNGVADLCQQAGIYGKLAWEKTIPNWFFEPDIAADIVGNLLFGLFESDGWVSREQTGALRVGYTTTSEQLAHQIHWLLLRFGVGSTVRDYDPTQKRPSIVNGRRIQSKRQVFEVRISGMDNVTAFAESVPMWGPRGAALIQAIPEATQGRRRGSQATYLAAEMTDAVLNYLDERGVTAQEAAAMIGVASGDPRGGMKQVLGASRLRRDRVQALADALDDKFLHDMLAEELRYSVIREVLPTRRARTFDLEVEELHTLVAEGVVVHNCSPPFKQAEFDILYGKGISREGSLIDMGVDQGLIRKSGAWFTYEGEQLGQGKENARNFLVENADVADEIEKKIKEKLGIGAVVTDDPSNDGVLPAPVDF
# Vero [7] = experiment: cells; assay type: functional, cell-based; conditions: Chlorocebus sabaeus
# Vero [8] = experiment: cells; assay type: functional; conditions: Chlorocebus sabaeus
# [9] = target: T4, High affinity choline transporter 1 (Homo sapiens, UniProt Q9GZV3); experiment: CHT inhibitors, dose response, cell-based, 5-point CRC, membrane potential dye (AID 504840); assay type: functional
# T4 sequence (Q9GZV3 whole entry): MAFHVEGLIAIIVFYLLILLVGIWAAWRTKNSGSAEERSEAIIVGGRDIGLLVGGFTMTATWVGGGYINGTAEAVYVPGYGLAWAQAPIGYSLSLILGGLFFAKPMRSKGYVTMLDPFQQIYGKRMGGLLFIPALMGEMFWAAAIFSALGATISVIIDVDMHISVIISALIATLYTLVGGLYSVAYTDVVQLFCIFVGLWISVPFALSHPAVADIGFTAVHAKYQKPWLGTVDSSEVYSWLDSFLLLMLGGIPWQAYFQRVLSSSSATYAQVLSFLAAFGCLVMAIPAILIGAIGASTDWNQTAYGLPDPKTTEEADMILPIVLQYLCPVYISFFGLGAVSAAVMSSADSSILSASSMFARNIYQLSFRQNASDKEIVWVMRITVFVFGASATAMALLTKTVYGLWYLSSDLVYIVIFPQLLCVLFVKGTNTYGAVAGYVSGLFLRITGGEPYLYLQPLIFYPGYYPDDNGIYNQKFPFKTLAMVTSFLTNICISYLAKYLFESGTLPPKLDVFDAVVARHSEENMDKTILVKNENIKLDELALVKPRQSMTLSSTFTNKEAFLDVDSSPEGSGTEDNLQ
# HEK293 [10] = experiment: cells; assay type: functional, cell-based; conditions: Homo sapiens
# [11] = target: T5, Nuclear receptor subfamily 0 group B member 1 (Homo sapiens, UniProt P51843); experiment: Luminescence-based cell-based high throughput dose response assay for inhibitors of the orphan nuclear receptor subfamily 0, group B, member 1 (DAX1; NR0B1). [Related pubchem assays (depositor defined):AID504766, AID504790]; assay type: functional
# T5 sequence (P51843 whole entry): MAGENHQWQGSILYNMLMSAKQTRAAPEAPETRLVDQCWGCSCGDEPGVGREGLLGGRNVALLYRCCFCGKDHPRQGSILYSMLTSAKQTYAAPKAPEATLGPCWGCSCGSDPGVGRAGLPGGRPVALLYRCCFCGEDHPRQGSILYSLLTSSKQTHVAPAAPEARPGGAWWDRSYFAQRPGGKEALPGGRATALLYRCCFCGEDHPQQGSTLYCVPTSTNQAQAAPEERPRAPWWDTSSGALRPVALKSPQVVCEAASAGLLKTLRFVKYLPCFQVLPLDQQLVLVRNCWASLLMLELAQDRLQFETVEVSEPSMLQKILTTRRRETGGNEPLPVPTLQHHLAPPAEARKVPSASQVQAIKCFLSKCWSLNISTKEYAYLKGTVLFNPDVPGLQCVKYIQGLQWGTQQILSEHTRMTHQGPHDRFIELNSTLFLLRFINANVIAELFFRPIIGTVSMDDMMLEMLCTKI
# Beta-galactosidase = Beta-galactosidase (Escherichia coli, UniProt Q8VNN2); experiment: PubChem AID 485352; assay type: functional
# [12] = target: T6, Type-1 angiotensin II receptor (Homo sapiens, UniProt P30556); experiment: AT1 receptor antagonists, dose response, selectivity assay for APJ receptor antagonist project, cell-based, uHTS hits (AID 463214); assay type: functional;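 note: antagonist potency against angiotensin II stimulated AT1 response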
# T6 sequence (P30556 whole entry): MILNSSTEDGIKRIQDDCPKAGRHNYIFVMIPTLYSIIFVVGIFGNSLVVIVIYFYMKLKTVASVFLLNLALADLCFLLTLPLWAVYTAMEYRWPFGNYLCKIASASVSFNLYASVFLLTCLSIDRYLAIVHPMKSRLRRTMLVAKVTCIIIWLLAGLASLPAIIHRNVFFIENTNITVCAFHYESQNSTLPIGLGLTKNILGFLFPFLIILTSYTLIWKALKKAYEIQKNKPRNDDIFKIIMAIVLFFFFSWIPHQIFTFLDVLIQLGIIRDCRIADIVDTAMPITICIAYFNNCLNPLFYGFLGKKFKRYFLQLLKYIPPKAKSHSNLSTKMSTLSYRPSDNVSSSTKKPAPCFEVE
# HEK293 [13] = experiment: inhibitors of LMP1-driven NF-kB reporter, dose response, cell-based, HEK293, luciferase, cherry-pick (AID 588343); assay type: functional; conditions: Homo sapiens
# [14] = Shn3 3'UTR reporter inhibitors, dose response, cell-based, Clone20 osteoblasts, firefly luciferase, cherry-picked (AID 624132); assay type: functional;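 note: firefly luciferase luminescence from reporter carrying the Shn3 3'UTR in osteoblasts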
# [15] = HepG2 cell cytotoxicity, dose response, cytotoxicity control for Shn3 inhibitor project, CellTiter-Glo, cherry-picked (AID 624134); assay type: functional, cell-based
# [16] = control 3'UTR Renilla luciferase suppression, dose response, counter-screen for Shn3 inhibitor project, cell-based, Clone20-Shn3RL, cherry-picked (AID 624133); assay type: functional
# Sequence of Beta-galactosidase (Q8VNN2 whole entry): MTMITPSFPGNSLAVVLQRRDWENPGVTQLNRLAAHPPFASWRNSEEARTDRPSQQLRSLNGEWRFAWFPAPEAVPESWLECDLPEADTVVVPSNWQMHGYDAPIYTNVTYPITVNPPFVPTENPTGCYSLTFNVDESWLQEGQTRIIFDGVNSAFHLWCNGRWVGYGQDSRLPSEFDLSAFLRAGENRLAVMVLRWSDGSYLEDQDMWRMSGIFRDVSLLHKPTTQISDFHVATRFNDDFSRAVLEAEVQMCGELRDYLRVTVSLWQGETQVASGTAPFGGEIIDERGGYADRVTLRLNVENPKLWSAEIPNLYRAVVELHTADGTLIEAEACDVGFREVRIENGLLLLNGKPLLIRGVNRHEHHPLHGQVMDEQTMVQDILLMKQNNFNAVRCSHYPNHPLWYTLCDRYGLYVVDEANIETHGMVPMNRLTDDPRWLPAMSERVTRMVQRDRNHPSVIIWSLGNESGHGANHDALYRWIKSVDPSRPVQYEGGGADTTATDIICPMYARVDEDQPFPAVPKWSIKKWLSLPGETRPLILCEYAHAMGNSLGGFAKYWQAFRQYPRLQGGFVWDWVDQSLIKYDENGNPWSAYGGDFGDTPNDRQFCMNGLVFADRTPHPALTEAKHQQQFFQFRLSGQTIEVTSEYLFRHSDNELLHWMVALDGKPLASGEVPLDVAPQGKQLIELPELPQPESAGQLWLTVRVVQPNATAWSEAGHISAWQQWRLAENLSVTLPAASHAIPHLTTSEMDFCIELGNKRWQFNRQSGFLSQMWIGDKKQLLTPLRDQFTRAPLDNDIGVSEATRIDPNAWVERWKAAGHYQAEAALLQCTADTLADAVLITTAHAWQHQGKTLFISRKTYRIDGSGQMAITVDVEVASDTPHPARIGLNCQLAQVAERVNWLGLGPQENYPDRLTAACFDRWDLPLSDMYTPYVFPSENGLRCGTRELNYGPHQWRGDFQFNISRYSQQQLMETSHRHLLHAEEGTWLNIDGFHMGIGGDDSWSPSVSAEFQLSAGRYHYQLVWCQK
compound,measurement,setting,value
O=C(CCl)N1CCCC1c1ccc2c(c1)OCCO2 (stereo unspecified),EC50,[1],29.6 µM (active)
same,EC50,[2],14 µM (active)
same,EC50,H4,> 120 µM (not active)
same,EC50,[3],1.14 µM (active)
same,CC50,[4],11.6 µM (active)
same,IC50,Jurkat,1.39 µM (active)
same,IC50,[5],> 80 µM (inactive)
same,AC50,[6],12.2 µM (active)
same,EC50,Protein RecA,> 380 µM (inconclusive)
O=C(C=Cc1ccccc1)c1cnc2ccccc2c1O,IC50,Vero [7],> 25 µM (active)
same,CC50,Vero [8],11 µM (active)
Cc1ccnc(SCc2cc(=O)c(OC(=O)c3ccco3)co2)n1,IC50,[9],15.8 µM (active)
Nc1c(-c2ccc(Cl)cc2)cnc2c(-c3ccccc3)cnn12,IC50,HEK293 [10],> 67.5 µM (inactive)
same,IC50,[11],> 67.5 µM (inactive)
O=C1Nc2ccccc2C1=Nc1ccc(F)cc1,EC50,Beta-galactosidase,> 40 µM (inactive)
same,IC50,[12],24.4 µM (not active)
CCCCCn1c(=O)[nH]c2cc(C(=O)NCCCN3CCCCC3C)ccc2c1=O (stereo unspecified),IC50,[9],14.5 µM (active)
CS(=O)(=O)N1CCc2cc(C(=O)Nc3ccccc3Cl)ccc21,IC50,HEK293 [10],> 67.5 µM (inactive)
same,IC50,[11],> 67.5 µM (inactive)
COc1ccc(C(=O)NC2CCCc3c2cnn3-c2cccc(C)c2C)c(OC)n1 (stereo unspecified),AC50,HEK293 [13],17.5 µM (active)
same,IC50,Vero [7],3.8 µM (active)
same,CC50,Vero [8],> 25 µM (active)
same,AC50,[14],1.96 µM (active)
same,AC50,[15],> 70 µM (inactive)
same,AC50,[16],3.27 µM (active)
CCc1ccc(-c2nc(C[S+]([O-])CC(=O)NCc3ccco3)c(C)o2)cc1 (stereo unspecified),IC50,Jurkat,44.1 µM (inactive)
same,IC50,[5],> 80 µM (inactive)
O=C(Cc1ccc(F)cc1)OCC(=O)c1cc2ccccc2o1,EC50,Beta-galactosidase,> 40 µM (inactive)
same,IC50,[12],23.9 µM (not active)
CN1CCN(C(=S)c2ccc(-c3cccc([N+](=O)[O-])c3)o2)CC1,EC50,[1],0.141 µM (active)
same,EC50,[2],0.117 µM (active)
same,EC50,H4,2.4 µM (active)
same,IC50,HEK293 [10],> 67.6 µM (inactive)
same,IC50,[11],> 67.6 µM (inactive)
c1ccc2c(c1)ccc1[nH]c3c(c12)CCCC3,IC50,Vero [7],3.39 µM (active)
same,CC50,Vero [8],> 25 µM (active)
